Reference: the NIST ThermoML archive (doi:10.1016/j.fluid.2011.12.029)

Details: Liquid, Vibrating tube method

CCCC[n+]1ccccc1.F[B-](F)(F)F [1-butylpyridinium tetrafluoroborate]
Details | mass density [kg/m3]
283.15 K, 100 kPa | 1225.36
283.15 K, 5000 kPa | 1227.5
283.15 K, 10000 kPa | 1229.65
283.15 K, 15000 kPa | 1231.84
283.15 K, 20000 kPa | 1233.82
283.15 K, 25000 kPa | 1235.92
283.15 K, 30000 kPa | 1237.85
283.15 K, 35000 kPa | 1239.79
283.15 K, 40000 kPa | 1241.64
283.15 K, 45000 kPa | 1243.52
283.15 K, 50000 kPa | 1245.28
283.15 K, 55000 kPa | 1247
283.15 K, 60000 kPa | 1248.71
283.15 K, 65000 kPa | 1250.41
288.15 K, 100 kPa | 1221.64
288.15 K, 5000 kPa | 1223.77
288.15 K, 10000 kPa | 1225.95
288.15 K, 15000 kPa | 1228.23
288.15 K, 20000 kPa | 1230.2
288.15 K, 25000 kPa | 1232.3
288.15 K, 30000 kPa | 1234.24
288.15 K, 35000 kPa | 1236.23
288.15 K, 40000 kPa | 1238.24
288.15 K, 45000 kPa | 1240.13
288.15 K, 50000 kPa | 1241.78
288.15 K, 55000 kPa | 1243.6
288.15 K, 60000 kPa | 1245.23
288.15 K, 65000 kPa | 1247.03
293.15 K, 100 kPa | 1218.02
293.15 K, 5000 kPa | 1220.21
293.15 K, 10000 kPa | 1222.35
293.15 K, 15000 kPa | 1224.51
293.15 K, 20000 kPa | 1226.68
293.15 K, 25000 kPa | 1228.73
293.15 K, 30000 kPa | 1230.74
293.15 K, 35000 kPa | 1232.84
293.15 K, 40000 kPa | 1234.73
293.15 K, 45000 kPa | 1236.53
293.15 K, 50000 kPa | 1238.41
293.15 K, 55000 kPa | 1240.31
293.15 K, 60000 kPa | 1241.96
293.15 K, 65000 kPa | 1243.85
298.15 K, 100 kPa | 1214.34
298.15 K, 5000 kPa | 1216.62
298.15 K, 10000 kPa | 1218.93
298.15 K, 15000 kPa | 1221.01
298.15 K, 20000 kPa | 1223.33
298.15 K, 25000 kPa | 1225.43
298.15 K, 30000 kPa | 1227.48
298.15 K, 35000 kPa | 1229.43
298.15 K, 40000 kPa | 1231.45
298.15 K, 45000 kPa | 1233.36
298.15 K, 50000 kPa | 1235.32
298.15 K, 55000 kPa | 1237.1
298.15 K, 60000 kPa | 1238.81
298.15 K, 65000 kPa | 1240.44
303.15 K, 100 kPa | 1210.91
303.15 K, 5000 kPa | 1213.26
303.15 K, 10000 kPa | 1215.59
303.15 K, 15000 kPa | 1217.74
303.15 K, 20000 kPa | 1219.92
303.15 K, 25000 kPa | 1222.02
303.15 K, 30000 kPa | 1224.11
303.15 K, 35000 kPa | 1226.12
303.15 K, 40000 kPa | 1228.08
303.15 K, 45000 kPa | 1229.97
303.15 K, 50000 kPa | 1231.94
303.15 K, 55000 kPa | 1233.82
303.15 K, 60000 kPa | 1235.58
303.15 K, 65000 kPa | 1237.3
308.15 K, 100 kPa | 1207.32
308.15 K, 5000 kPa | 1209.57
308.15 K, 10000 kPa | 1211.82
308.15 K, 15000 kPa | 1214.09
308.15 K, 20000 kPa | 1216.23
308.15 K, 25000 kPa | 1218.48
308.15 K, 30000 kPa | 1220.54
308.15 K, 35000 kPa | 1222.62
308.15 K, 40000 kPa | 1224.5
308.15 K, 45000 kPa | 1226.48
308.15 K, 50000 kPa | 1228.36
308.15 K, 55000 kPa | 1230.34
308.15 K, 60000 kPa | 1232.17
308.15 K, 65000 kPa | 1234.06
313.15 K, 100 kPa | 1203.87
313.15 K, 5000 kPa | 1206.23
313.15 K, 10000 kPa | 1208.56
313.15 K, 15000 kPa | 1210.88
313.15 K, 20000 kPa | 1213.11
313.15 K, 25000 kPa | 1215.28
313.15 K, 30000 kPa | 1217.47
313.15 K, 35000 kPa | 1219.51
313.15 K, 40000 kPa | 1221.56
313.15 K, 45000 kPa | 1223.48
313.15 K, 50000 kPa | 1225.54
313.15 K, 55000 kPa | 1227.32
313.15 K, 60000 kPa | 1229.18
313.15 K, 65000 kPa | 1231.01
318.15 K, 100 kPa | 1200.36
318.15 K, 5000 kPa | 1202.66
318.15 K, 10000 kPa | 1205.15
318.15 K, 15000 kPa | 1207.31
318.15 K, 20000 kPa | 1209.58
318.15 K, 25000 kPa | 1211.7
318.15 K, 30000 kPa | 1213.85
318.15 K, 35000 kPa | 1216.03
318.15 K, 40000 kPa | 1218.05
318.15 K, 45000 kPa | 1220.04
318.15 K, 50000 kPa | 1222.02
318.15 K, 55000 kPa | 1223.9
318.15 K, 60000 kPa | 1225.83
318.15 K, 65000 kPa | 1227.74
323.15 K, 100 kPa | 1196.96
323.15 K, 5000 kPa | 1199.29
323.15 K, 10000 kPa | 1201.77
323.15 K, 15000 kPa | 1204.12
323.15 K, 20000 kPa | 1206.47
323.15 K, 25000 kPa | 1208.68
323.15 K, 30000 kPa | 1210.86
323.15 K, 35000 kPa | 1212.95
323.15 K, 40000 kPa | 1215.03
323.15 K, 45000 kPa | 1217
323.15 K, 50000 kPa | 1218.98
323.15 K, 55000 kPa | 1220.89
323.15 K, 60000 kPa | 1222.84
323.15 K, 65000 kPa | 1224.65
328.15 K, 100 kPa | 1193.36
328.15 K, 5000 kPa | 1195.72
328.15 K, 10000 kPa | 1198.11
328.15 K, 15000 kPa | 1200.54
328.15 K, 20000 kPa | 1202.82
328.15 K, 25000 kPa | 1205.08
328.15 K, 30000 kPa | 1207.36
328.15 K, 35000 kPa | 1209.57
328.15 K, 40000 kPa | 1211.63
328.15 K, 45000 kPa | 1213.66
328.15 K, 50000 kPa | 1215.6
328.15 K, 55000 kPa | 1217.56
328.15 K, 60000 kPa | 1219.5
328.15 K, 65000 kPa | 1221.56
333.15 K, 100 kPa | 1190.07
333.15 K, 5000 kPa | 1192.59
333.15 K, 10000 kPa | 1195
333.15 K, 15000 kPa | 1197.4
333.15 K, 20000 kPa | 1199.91
333.15 K, 25000 kPa | 1202.04
333.15 K, 30000 kPa | 1204.36
333.15 K, 35000 kPa | 1206.49
333.15 K, 40000 kPa | 1208.69
333.15 K, 45000 kPa | 1210.67
333.15 K, 50000 kPa | 1212.88
333.15 K, 55000 kPa | 1214.74
333.15 K, 60000 kPa | 1216.56
333.15 K, 65000 kPa | 1218.57
